In experiment [1] the test system is erythropoietin. As to the kind of experiment: Plasma EPO in mice after oral gavage. It counts as in vivo, Swiss Webster mice. Particulars: mouse plasma, oral gavage 6-60 mg/kg, six hours. The procedure:
(§1) In another series of experiments, male Swiss Webster mice (29-34 g) were administered various compounds of the present invention via oral gavage using a ball-tipped gavage needle. Animals treated by oral gavage received a 4-10 ml/kg volume of either 0.5% carboxymethyl cellulose with or without 0.1% Polysorbate 80 (vehicle control) or various doses (6-60 mg/kg) of a compound of the present invention in 0.5% CMC, with or without 0.1% Polysorbate 80. Blood samples were collected and tissues were processed as described above. Six hours after injection, the animals were anesthetized and exsanguinated.
(§2) Plasma samples were collected in EDTA and heparin coated microtainer tubes. Plasma samples were assayed for erythropoietin and VEGF using commercially-available ELISA kits purchased from R & D Systems (Minneapolis Minn.).

Experiment [2] relates to VEGF. Description: Plasma VEGF in mice after oral gavage. Particulars: mouse plasma, oral gavage 6-60 mg/kg, six hours. It counts as in vivo, Swiss Webster mice. The procedure: as §1, §2
The test system of experiment [3] is erythropoietin. As to the kind of experiment: Plasma EPO in mice after intravenous injection. It counts as in vivo, Swiss Webster mice. To be noted: mouse plasma, 20 mg/kg i.v., four hours after injection; for fold induction at 20 mg/kg: iv, 4 h, read-out: EPO Fold Increase. In short, it runs like this: (§3)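 Male Swiss Webster mice (29-34 g) received 20 mg/kg compound or vehicle by tail-vein injection in 5% dextrose with equimolar NaOH or meglumine. Plasma was collected 4 h later, and EPO and VEGF were measured by ELISA.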

Experiment [4] has as its system erythropoietin (EPO). As to the kind of experiment: EPO expression in Hep3B cells (QUANTIKINE immunoassay of conditioned media). To be noted: for Fold Increase Over Control: EPO, vs 1% DMSO control; for EPO: conditioned media after overnight incubation with compound. It counts as cell-based, Human. Summed up:
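Confluent Hep3B cells were switched to OPTI-MEM for about 24 h (20% O2, 5% CO2, 37 °C), then treated overnight with compound or 1% DMSO vehicle. EPO secreted into the conditioned medium was measured by QUANTIKINE immunoassay.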

The test system of experiment [5] is erythropoietin (EPO). As to the kind of experiment: EPO expression in Kelly neuroblastoma cells. It counts as cell-based. To be noted: for EPO: conditioned media after overnight incubation. In short, it runs like this:
(§4)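 Kelly neuroblastoma cells treated overnight with compound, 1% DMSO as negative control. EPO and VEGF secreted into conditioned media measured by QUANTIKINE immunoassay.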

Experiment [6] has as its system vascular endothelial growth factor (VEGF). As to the kind of experiment: VEGF expression in Kelly neuroblastoma cells. Type of experiment: cell-based. Particulars: for VEGF: conditioned media after overnight incubation. Summed up:
as §4

The test system of experiment [7] is VEGF. As to the kind of experiment: Plasma VEGF in mice after intravenous injection. Type of experiment: in vivo, Swiss Webster mice. Particulars: mouse plasma, 20 mg/kg i.v., four hours after injection; for fold induction at 20 mg/kg: iv, 4 h, read-out: VEGF Fold Increase. Summed up: as §3
Experiment [8] relates to C57BL/6 mice, permanent occlusion of the MCA. As to the kind of experiment: Permanent middle cerebral artery occlusion (pMCAO) in C57BL/6 mice: infarct volume and edema. Type of experiment: in vivo. To be noted: C57BL/6 mice pMCAO, 20-60 mg/kg i.v.; for inhibition in vivo at up to 20 mg/kg: Mus musculus, iv, 24 h, 24 hours after MCA occlusion, read-out: Percent Reduction in Infarct Volume. The procedure:
The effect of compounds of the present invention on infarct volume and edema associated with stroke was examined in an animal model of ischemic stroke. In these studies, mice were subjected to permanent occlusion of the middle cerebral artery. Mice were anesthetized intraperitoneally with avertin (0.5 mg/g). Mice were then immobilized in a rodent stereotaxic frame (Kopf Instruments, Tujunga Calif.) and maintained with avertin as needed. The surgical area of the head was swabbed with 70% ethanol and a lateral incision was made between the right orbit and the right ear. […] The distal course of the middle cerebral artery (MCA) was visible through the translucent skull. A small burr-hole craniotomy was performed with a micro-drill (Fine Science Tools, Foster City Calif.). The meninges/dura was removed and the MCA was coagulated by bipolar diathermy. The muscle and soft tissue were replaced and the incision closed with vet-bond adhesive (3M, St. Paul Minn.). These studies were performed in two different mouse models of pMCAO as described below.
In one series of experiments, male C57BL/6 mice (25-35 g) were subjected to permanent occlusion of the MCA as described above. Compounds of the present invention were administered by intravenous injection at various times before or after MCA occlusion (see Table 7). Animals administered compound by intravenous injection received a 6 ml/kg volume of either 5% Dextrose with an equimolar amount of Meglumine (vehicle control) or 20-60 mg/kg of a compound of the present invention in 5% dextrose with an equimolar amount of Meglumine. Body temperature of the animals was maintained by use of a heating pad both during and after surgery. Twenty-four hours after MCA occlusion animals were euthanized with CO2 and their brains removed. After removal, the brain was sliced in 7 coronal sections, each 1 mm thick. The sections were placed rostral side down in a petri dish and stained with 1% Triphenyl tetrazolium chloride for 20 minutes at 37° C. for determination of infarct volume. Brain sections were then digitally photographed and analyzed for changes in infarct volume and extent of edema. Infarct volumes were determined by measuring the infarcted (i.e., non-stained) areas of each brain section and multiplying this value by the section thickness. Extent of edema was determined by the net increase in volume of the ipsilateral cortex compared to that of the contralateral cortex of brain sections.
The effect of compounds of the present invention administered at various times following the onset of stroke was examined further as follows. In these studies, changes in infarct volume were measured using an animal model of stroke when compounds of the present invention were administered from 0 to 8 hours following permanent MCA occlusion. In one series of experiments, male C57BL/6 mice (25-35 g) were subjected to permanent occlusion of the MCA as described above. Compound F was administered to the animals by a single intravenous bolus injection at various times up to 5 hours after MCA occlusion (see Table 8 below). Animals administered compound by intravenous injection received a 6 ml/kg volume of either 5% Dextrose with an equimolar amount of NaOH (vehicle control) or 60 mg/kg of Compound F in 5% dextrose with an equimolar amount of NaOH. Body temperature of the animals was maintained by use of a heating pad both during and after surgery. Changes in infarct volumes were determined as described above.
In another set of experiments, male C57BL/6 mice (25-35 g) were subjected to permanent occlusion of the MCA as described above. Compound F was administered by single intravenous bolus injection at various times up to 8 hours after MCA occlusion (see Table 9 below). Animals administered compound by intravenous injection received a 6 ml/kg volume of either 5% Dextrose with an equimolar amount of Meglumine (vehicle control) or 60 mg/kg of Compound F in 5% dextrose with an equimolar amount of Meglumine. […]

Where [9] appears, read: compound given 4 hr after occlusion.

Like-named read-outs stand apart in the source and are kept apart here.

In the case of `C#Cc1nc(C(=O)NCC(=O)O)c(O)c2ccsc12` [Compound M, [(7-Ethynyl-4-hydroxy-thieno[2,3-c]pyridine-5-carbonyl)-amino]-acetic acid], the “EPO Fold Increase” value stood at 1.26 in experiment [1] and 285 in experiment [5]. Besides, the EPO in experiment [1] (mouse EPO ELISA kit (**)) amounted to 8.8 pg/mL; in experiment [3] (mouse EPO ELISA kit (**)), 161.6 pg/mL; in experiment [4], 64.1 mIU/ml; in experiment [5] it was 57 mIU/ml. In addition, the VEGF in experiment [2] is 38 pg/mL; in experiment [6] it was 1436 pg/mL; in experiment [7] it was 38 pg/mL. In addition, the entries for the “VEGF Fold Increase” value in experiment [2] and in experiment [6] were 1.23 and 2.0, respectively. The fold induction at 20 mg/kg in experiment [3] was 180; in experiment [7] it was 1.31. The “Fold Increase Over Control” value in experiment [4] is 11.6.

For the molecule `O=C(O)CNC(=O)c1ncc2cc(Sc3ccccc3)ccc2c1O` [Compound E, [(4-Hydroxy-7-phenylsulfanyl-isoquinoline-3-carbonyl)-amino]-acetic acid], the EPO was found to be 17.4 mIU/ml in experiment [1] (human EPO ELISA kit (*)), 122 mIU/ml in experiment [3] (human EPO ELISA kit (*)), 127.6 mIU/ml in experiment [4] and 55.8 mIU/ml in experiment [5]. Also, the VEGF was 65.4 pg/mL in experiment [2], 2495.8 pg/mL in experiment [6] and 66.5 pg/mL in experiment [7]. The “VEGF Fold Increase” value in experiment [2] was found to be 1.63; in experiment [6] it was 15.8. In experiment [4], the “Fold Increase Over Control” value came to 17.0. In addition, the “EPO Fold Increase” value in experiment [5] is on record as 9.0. Besides, in experiment [7], the fold induction at 20 mg/kg was found to be 1.58. The “Percent Reduction in Edema” value in experiment [8] (compound given −6 hr) is 54%. Also, the inhibition in vivo at up to 20 mg/kg was found to be 9% in experiment [8] (setting [9]) and 51% in experiment [8] (compound given −6 hr).

Consider `O=C(O)CNC(=O)c1nc(Cl)c2ccsc2c1O` [Compound L, [(4-Chloro-7-hydroxy-thieno[3,2-c]pyridine-6-carbonyl)-amino]-acetic acid], for which the “EPO Fold Increase” value in experiment [1] turned out to be 11.81; in experiment [5] it was 5.2. The EPO in experiment [1] (mouse EPO ELISA kit (**)) stood at 82.7 pg/mL; in experiment [3] (mouse EPO ELISA kit (**)), 400.3 pg/mL; in experiment [4] it was 11.1 mIU/ml; in experiment [5], 98.2 mIU/ml. The VEGF in experiment [2] was determined as 41 pg/mL; in experiment [6], 4750.0 pg/mL; in experiment [7], 13 pg/mL. For the same molecule, the “VEGF Fold Increase” value is reported as 1.32 in experiment [2] and 3.3 in experiment [6]. For the same molecule, the fold induction at 20 mg/kg in experiment [3] turned out to be 14.6; in experiment [7], 0.43. Moreover, the “Fold Increase Over Control” value in experiment [4] is reported as 4.2. Moreover, the inhibition in vivo at up to 20 mg/kg in experiment [8] (setting [9]) was 48%.

Turning to `N#Cc1nc(C(=O)NCC(=O)O)c(O)c2cc(Oc3ccc4c(c3)CCO4)ccc12` [Compound AO, {[1-Cyano-6-(2,3-dihydro-benzofuran-5-yloxy)-4-hydroxy-isoquinoline-3-carbonyl]-amino}-acetic acid], the fold induction at 20 mg/kg in experiment [3] amounted to 92.8. The same molecule had an EPO in experiment [3] (mouse EPO ELISA kit (**)) of 12719 pg/mL. In experiment [4], the “Fold Increase Over Control” value was 83.4 and the EPO was found to be 83.4 mIU/ml. Further, in experiment [5], the “EPO Fold Increase” value is 19.55 and the EPO is given as 369.5 mIU/ml. In addition, in experiment [6], the “VEGF Fold Increase” value turned out to be 4.6 and the VEGF stood at 6653 pg/mL. In experiment [7], the fold induction at 20 mg/kg is 0.97 and the VEGF stood at 38 pg/mL. In addition, the inhibition in vivo at up to 20 mg/kg in experiment [8] (setting [9]) came to 55%.

Regarding `CC(NC(=O)c1ncc2cc(Sc3ccccc3)ccc2c1O)C(=O)O` (centres unmarked) [Compound Y, 2-[(4-Hydroxy-7-phenylsulfanyl-isoquinoline-3-carbonyl)-amino]-propionic acid], the “EPO Fold Increase” value in experiment [1] came to 8.85. In addition, the EPO in experiment [1] (human EPO ELISA kit (*)) turned out to be 11.5 mIU/ml. Besides, in experiment [2], the VEGF came out at 52.7 pg/mL and the “VEGF Fold Increase” value worked out at 2.28.

`O=C(O)CNC(=O)c1ncc2cc(Oc3ccccc3)ccc2c1O` [Compound AC, [(4-Hydroxy-7-phenoxy-isoquinoline-3-carbonyl)-amino]acetic acid]: the fold induction at 20 mg/kg in experiment [3] is 2940. The EPO in experiment [3] (human EPO ELISA kit (*)) was 294 mIU/ml. In experiment [4], the “Fold Increase Over Control” value was 10.8 and the EPO is recorded as 160.1 mIU/ml. Moreover, in experiment [5], the “EPO Fold Increase” value was 11.9 and the EPO is reported as 73.8 mIU/ml. For the same molecule, in experiment [6], the “VEGF Fold Increase” value came to 15.8 and the VEGF was found to be 2503.8 pg/mL. In experiment [7], the fold induction at 20 mg/kg came to 2.15 and the VEGF was 70 pg/mL. For the same molecule, the inhibition in vivo at up to 20 mg/kg in experiment [8] (compound given 0 hr) was 17%.

For the molecule `CC(NC(=O)c1ncc2cc(Oc3ccccc3)ccc2c1O)C(=O)O` (centres unmarked) [Compound I, 2-[(4-Hydroxy-7-phenoxy-isoquinoline-3-carbonyl)-amino]-propionic acid], the “EPO Fold Increase” value amounted to 16.46 in experiment [1] and 3.4 in experiment [5]. Further, the EPO worked out at 21.4 mIU/ml in experiment [1] (human EPO ELISA kit (*)), 62.1 mIU/ml in experiment [3] (human EPO ELISA kit (*)), 41.0 mIU/ml in experiment [4] and 14.8 mIU/ml in experiment [5]. For the same molecule, the VEGF was found to be 62.7 pg/mL in experiment [2], 2370.0 pg/mL in experiment [6] and 77.8 pg/mL in experiment [7]. The entries for the “VEGF Fold Increase” value in experiment [2] and in experiment [6] were 2.71 and 7.2, respectively. Further, the fold induction at 20 mg/kg in experiment [3] amounted to 155; in experiment [7], 2.13.

For the origin of these results see patent publication US9775902B2, “Compounds and methods for treatment of stroke” (FIBROGEN, INC, priority 2006, dated 2017).
